Experimental data from publication PMC6264278, “Corydaline Inhibits Multiple Cytochrome P450 and UDP-Glucuronosyltransferase Enzyme Activities in Human Liver Microsomes” (Molecules, 2011).
Where two headings read alike, the source gives them in different places.

Target: T1, CYP2C9 (Homo sapiens, UniProt P11712)
T1 construct: using pooled human liver microsomes; tissue BD Gentest Co. H161; host or cells: pooled human liver microsomes
Assay: CYP2C9 diclofenac 4-hydroxylation inhibition in pooled human liver microsomes
Type: in vitro ADME
Conditions: for IC50: 10 μM diclofenac, mean ± SD, n = 3
Protocol: Phenacetin O-deethylase, coumarin 7-hydroxylase, amodiaquine N-deethylase, diclofenac 4-hydroxylase, S-mephenytoin 4-hydroxylase, bufuralol hydroxylase, and midazolam 1’-hydroxylase activities were determined as probe activities for CYP1A2, CYP2A6, CYP2C8, CYP2C9, CYP2C19, CYP2D6, and CYP3A4, respectively, using cocktail incubation and liquid chromatography-tandem mass spectrometry (LC/MS/MS). The incubation mixtures were prepared in a total volume of 200 μL, as follows: pooled human liver microsomes (0.25 mg/mL), 1.3 mM NADPH, 3.3 mM MgCl2, 50 mM potassium phosphate buffer (pH 7.4), and a cocktail of probe substrates and various concentrations of corydaline (1−200 μM). The substrates were used at concentrations approximately equal to their respective Km values: 50 μM phenacetin, 2.5 μM coumarin, 2.5 μM amodiaquine, 10 μM diclofenac, 100 μM S-mephenytoin, 5 μM bufuralol, and 2.5 μM midazolam. After a 3-min pre-incubation period at 37 °C, the reactions were initiated by addition of an NADP generating system and incubated for 20 min at 37 °C in a shaking water bath. After incubation, the reaction was stopped by placement of the tubes on ice and addition of 100 μL of ice-cold methanol containing internal standards (^13C2,^15N-acetaminophen for acetaminophen and N-desethylamodiaquine, d5-7-hydroxycoumarin for 7-hydroxycoumarin, ^13C6-4-hydroxydiclofenac for 4-hydroxydiclofenac, d3-4-hydroxy-mephenytoin for 4-hydroxymephenytoin and hydroxymidazolam, d9-1-hydroxybufuralol for 1-hydroxybufuralol). The incubation mixtures were then centrifuged at 13,000 × g for 5 min. All incubations were performed in triplicate and the mean values were used. […] The reaction was started by addition of a cocktail of CYP probe substrates.
All 7 metabolites produced from the cocktail of CYP isoform-specific substrates were simultaneously determined by LC/MS/MS [25]. The system consisted of a tandem quadrupole mass spectrometer (TSQ Quantum Access, ThermoFisher Scientific, San Jose, CA, USA) coupled with a Nanospace SI-2 LC system. Separation was performed on an Atlantis dC18 column (5 μm, 2.1 mm i.d. ×100 mm, Waters, Milford, MA, USA) using the gradient elution of a mixture of 5% methanol in 0.1% formic acid (mobile phase A) and 95% methanol in 0.1% formic acid (mobile phase B) at a flow rate of 0.25 mL/min: 10% mobile phase B for 1 min, 10% to 95% mobile phase B for 1 min, 95% mobile phase B for 5 min. The column and autosampler temperatures were 50 and 6 °C, respectively. After 1.5 min, the LC eluent was diverted from waste to the mass spectrometer fitted with the electrospray ionization (ESI) source and operated in positive ion mode. […] Quantification was performed by selected reaction monitoring (SRM) of the [M+H]^+ ion and the related product ion for each metabolite. […]
Reactions were initiated by addition of NADPH at 37 °C and stopped after 15 min by placement of the incubation tubes on ice and addition of ice-cold methanol (100 μL) containing an internal standard (2.0 μg/mL ^13C6-4-hydroxydiclofenac for diclofenac, 0.5 μg/mL d3-4-hydroxymephenytoin for mephenytoin, or 0.5 μg/mL d9-1-hydroxy-bufuralol for bufuralol). The incubation mixtures were centrifuged at 13,000 × g for 5 min, and aliquots (5 μL) of the supernatants were analyzed by LC/MS/MS. […] Aliquots (5 μL) were analyzed by LC/MS/MS. […]

T1 sequence (P11712 whole entry): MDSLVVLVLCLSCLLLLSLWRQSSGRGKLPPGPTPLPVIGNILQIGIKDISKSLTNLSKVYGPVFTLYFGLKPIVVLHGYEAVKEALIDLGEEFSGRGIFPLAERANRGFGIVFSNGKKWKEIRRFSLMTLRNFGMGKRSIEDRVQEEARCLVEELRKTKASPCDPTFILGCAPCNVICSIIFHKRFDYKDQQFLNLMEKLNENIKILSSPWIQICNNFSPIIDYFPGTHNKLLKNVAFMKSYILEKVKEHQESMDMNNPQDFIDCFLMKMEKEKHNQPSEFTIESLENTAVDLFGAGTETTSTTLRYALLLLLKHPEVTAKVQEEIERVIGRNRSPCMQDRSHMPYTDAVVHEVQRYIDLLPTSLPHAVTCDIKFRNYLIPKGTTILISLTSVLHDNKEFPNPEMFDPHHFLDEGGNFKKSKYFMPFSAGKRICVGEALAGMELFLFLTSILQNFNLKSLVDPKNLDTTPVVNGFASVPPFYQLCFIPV

- inhibition mode, CYP2C9 diclofenac 4-hydroxylation (Lineweaver, Dixon and secondary reciprocal plots): noncompetitive
- Ki (human liver microsomes, 1-10 μM diclofenac): 7.1 ± 0.4 µM
- Ki at 15 min (pH 7.4, probe diclofenac (1-10 μM), 4-hydroxylation, human liver microsomes, 1-10 μM diclofenac): 7 µM
- IC50 (pooled human liver microsomes (H161), read-out: IC50 no preincubation, CYP2C9 diclofenac 4-hydroxylation): 26.2 ± 4.6 µM
- IC50 (pre-incubated 30 min with NADPH, read-out: IC50 with preincubation, CYP2C9 diclofenac 4-hydroxylation): 30.6 ± 4.1 µM
SMILES: COc1cc2c(cc1OC)C1C(C)c3ccc(OC)c(OC)c3CN1CC2 (centres unmarked) [Corydaline, 2,3,9,10-tetramethoxy-13-methyl-5,8,13,13a-tetrahydro-6H-isoquino[3,2-a]isoquinoline]
